From ChEMBL document CHEMBL2203177, “Tuning the activity of a short arg-trp antimicrobial Peptide by lipidation of a C- or N-terminal lysine side-chain” (ACS Med Chem Lett, 2012)
pIC50: −log10 of the molar value. Converted amounts (≈) assume the structure as drawn. Peptide text beside a SMILES is read from it. * marks the point of attachment. Myristoyl = CCCCCCCCCCCCCC(=O)*; Lauroyl = CCCCCCCCCCCC(=O)*; Decanoyl = CCCCCCCCCC(=O)*; Octanoyl = CCCCCCCC(=O)*; Hexanoyl = CCCCCC(=O)*

Assays:
[1] = Hemolytic activity against human RBC assessed as hemoglobin leakage at 500 ug/ml after 5 mins; format: ADME, cell-based, Erythrocyte; conditions: human red blood cells, read-out: Activity
Staphylococcus aureus [2] = assay: Antibacterial activity against Staphylococcus aureus DSM 20231 assessed as growth inhibition after 18 hrs; format: functional; conditions: DSM 20231, 18 h
Bacillus subtilis [3] = assay: Bactericidal activity against Bacillus subtilis 168 (trpC2)2 assessed as survival rate at twice MIC concentration incubated for 15 mins measured after 18 hrs; format: functional, subsp. subtilis str. 168 (trpC2)2
MCF7 [4] = assay: Selectivity index, ratio of IC50 for human GM5657 cells to IC50 for human MCF7 cells; format: functional
Staphylococcus aureus [5] = assay: Antibacterial activity against Staphylococcus aureus ATCC 43300 assessed as growth inhibition after 18 hrs; format: functional; conditions: ATCC 43300, 18 h
[6] = Ratio of IC50 for human GM5657 cells to MIC for Staphylococcus aureus DSM 20231; format: functional
Acinetobacter baumannii = assay: Antibacterial activity against Acinetobacter baumannii DSM 30007 assessed as growth inhibition after 18 hrs; format: functional; conditions: DSM 30007, 18 h
Pseudomonas aeruginosa = assay: Antibacterial activity against Pseudomonas aeruginosa DSM 50071 assessed as growth inhibition after 18 hrs; format: functional; conditions: DSM 50071, 18 h
Escherichia coli = assay: Antibacterial activity against Escherichia coli DSM 30083 assessed as growth inhibition after 18 hrs; format: functional; conditions: DSM 30083, 18 h
[7] = Selectivity index, ratio of IC50 for human GM5657 cells to IC50 for human HT29 cells; format: functional
MCF7 [8] = assay: Cytotoxicity against human MCF7 cells assessed as inhibition of cell viability after 48 hrs by crystal violet assay; format: functional, cell-based; conditions: MCF7, 48 h
Bacillus subtilis [9] = assay: Antibacterial activity against Bacillus subtilis 168 DSM 402 assessed as growth inhibition after 18 hrs; format: functional; conditions: subsp. subtilis str. 168 DSM 402, 18 h
[10] = Hemolytic activity against human RBC assessed as hemoglobin leakage at 250 ug/ml; format: ADME, cell-based, Erythrocyte; conditions: human red blood cells, read-out: Activity
HT-29 = assay: Cytotoxicity against human HT-29 cells assessed as inhibition of cell viability after 48 hrs by crystal violet assay; format: functional, cell-based; conditions: HT-29, 48 h
[11] = Hemolytic activity against human RBC assessed as hemoglobin leakage; format: ADME, cell-based, Erythrocyte; conditions: human red blood cells
[12] = Cytotoxicity against human GM5657 cells assessed as inhibition of cell viability after 48 hrs by crystal violet assay; format: cell-based; conditions: GM5657, 48 h

CCCCCCCC(=O)NCCCC[C@H](N)C(=O)N[C@@H](CCCNC(=N)N)C(=O)N[C@@H](Cc1c[nH]c2ccccc12)C(=O)N[C@@H](CCCNC(=N)N)C(=O)N[C@@H](Cc1c[nH]c2ccccc12)C(=O)N[C@@H](CCCNC(=N)N)C(=O)N[C@@H](Cc1c[nH]c2ccccc12)C(N)=O (H-K(Octanoyl)RWRWRW-NH2)
hemolysis at 5 min, 500 ug/ml [1]: 88%
MIC (Staphylococcus aureus [2]): 2 µM (≈ 2.6 µg/mL)
Survival (Bacillus subtilis [3]): 0.006%
Ratio IC50 (MCF7 [4]): 7
MIC (Staphylococcus aureus [5]): 1 µM (≈ 1.3 µg/mL)
Ratio IC50 [6]: 15
MIC (Acinetobacter baumannii): 9 µM (≈ 11.7 µg/mL)
MIC (Pseudomonas aeruginosa): 9 µM (≈ 11.7 µg/mL)
MIC (Escherichia coli): 5 µM (≈ 6.49 µg/mL)
Ratio IC50 [7]: 7
pIC50 (MCF7 [8]): 5.34
MIC (Bacillus subtilis [9]): 0.6 µM (≈ 0.779 µg/mL)
hemolysis at 250 ug/ml [10]: > 50%
pIC50 (HT-29): 5.37
HC50 [11]: 114 µM
pIC50 [12]: 4.49

N=C(N)NCCC[C@H](NC(=O)[C@H](Cc1c[nH]c2ccccc12)NC(=O)[C@H](CCCNC(=N)N)NC(=O)[C@H](Cc1c[nH]c2ccccc12)NC(=O)[C@@H](N)CCCNC(=N)N)C(=O)N[C@@H](Cc1c[nH]c2ccccc12)C(N)=O (H-RWRWRW-NH2)
MIC (Staphylococcus aureus [2]): 11 µM (≈ 11.5 µg/mL)
Survival (Bacillus subtilis [3]): 2.8%
MIC (Staphylococcus aureus [5]): 6 µM (≈ 6.27 µg/mL)
MIC (Acinetobacter baumannii): 85 µM (≈ 88.8 µg/mL)
MIC (Pseudomonas aeruginosa): > 100 µM
MIC (Escherichia coli): 21 µM (≈ 21.9 µg/mL)
MIC (Bacillus subtilis [9]): 3 µM (≈ 3.13 µg/mL)
hemolysis at 250 ug/ml [10]: < 10%

CCCCCC(=O)NCCCC[C@H](NC(=O)[C@H](Cc1c[nH]c2ccccc12)NC(=O)[C@H](CCCNC(=N)N)NC(=O)[C@H](Cc1c[nH]c2ccccc12)NC(=O)[C@H](CCCNC(=N)N)NC(=O)[C@H](Cc1c[nH]c2ccccc12)NC(=O)[C@@H](N)CCCNC(=N)N)C(N)=O (H-RWRWRWK(Hexanoyl)-NH2)
MIC (Staphylococcus aureus [2]): 18 µM (≈ 22.9 µg/mL)
Survival (Bacillus subtilis [3]): 0.687%
MIC (Staphylococcus aureus [5]): 9 µM (≈ 11.4 µg/mL)
MIC (Acinetobacter baumannii): 19 µM (≈ 24.1 µg/mL)
MIC (Pseudomonas aeruginosa): 74 µM (≈ 94 µg/mL)
MIC (Escherichia coli): 19 µM (≈ 24.1 µg/mL)
MIC (Bacillus subtilis [9]): 2 µM (≈ 2.54 µg/mL)
hemolysis at 250 ug/ml [10]: < 10%

CCCCCCCC(=O)NCCCC[C@H](NC(=O)[C@H](Cc1c[nH]c2ccccc12)NC(=O)[C@H](CCCNC(=N)N)NC(=O)[C@H](Cc1c[nH]c2ccccc12)NC(=O)[C@H](CCCNC(=N)N)NC(=O)[C@H](Cc1c[nH]c2ccccc12)NC(=O)[C@@H](N)CCCNC(=N)N)C(N)=O (H-RWRWRWK(Octanoyl)-NH2)
hemolysis at 5 min, 500 ug/ml [1]: 48%
MIC (Staphylococcus aureus [2]): 2 µM (≈ 2.6 µg/mL)
Survival (Bacillus subtilis [3]): 0.261%
Ratio IC50 (MCF7 [4]): 7
MIC (Staphylococcus aureus [5]): 2 µM (≈ 2.6 µg/mL)
Ratio IC50 [6]: 15
MIC (Acinetobacter baumannii): 5 µM (≈ 6.49 µg/mL)
MIC (Pseudomonas aeruginosa): 18 µM (≈ 23.4 µg/mL)
MIC (Escherichia coli): 2 µM (≈ 2.6 µg/mL)
Ratio IC50 [7]: 7
pIC50 (MCF7 [8]): 5.33
MIC (Bacillus subtilis [9]): 0.6 µM (≈ 0.779 µg/mL)
hemolysis at 250 ug/ml [10]: 10%
pIC50 (HT-29): 5.35
HC50 [11]: 285 µM
pIC50 [12]: 4.50

CCCCCCCCCCCC(=O)NCCCC[C@H](NC(=O)[C@H](Cc1c[nH]c2ccccc12)NC(=O)[C@H](CCCNC(=N)N)NC(=O)[C@H](Cc1c[nH]c2ccccc12)NC(=O)[C@H](CCCNC(=N)N)NC(=O)[C@H](Cc1c[nH]c2ccccc12)NC(=O)[C@@H](N)CCCNC(=N)N)C(N)=O (H-RWRWRWK(Lauroyl)-NH2)
MIC (Staphylococcus aureus [2]): 1 µM (≈ 1.35 µg/mL)
Survival (Bacillus subtilis [3]): 0.004%
MIC (Staphylococcus aureus [5]): 1 µM (≈ 1.35 µg/mL)
MIC (Acinetobacter baumannii): 9 µM (≈ 12.2 µg/mL)
MIC (Pseudomonas aeruginosa): 18 µM (≈ 24.4 µg/mL)
MIC (Escherichia coli): 4 µM (≈ 5.42 µg/mL)
MIC (Bacillus subtilis [9]): 1 µM (≈ 1.35 µg/mL)
hemolysis at 250 ug/ml [10]: > 50%

CCCCCCCCCCCCCC(=O)NCCCC[C@H](NC(=O)[C@H](Cc1c[nH]c2ccccc12)NC(=O)[C@H](CCCNC(=N)N)NC(=O)[C@H](Cc1c[nH]c2ccccc12)NC(=O)[C@H](CCCNC(=N)N)NC(=O)[C@H](Cc1c[nH]c2ccccc12)NC(=O)[C@@H](N)CCCNC(=N)N)C(N)=O (H-RWRWRWK(Myristoyl)-NH2)
MIC (Staphylococcus aureus [2]): 2 µM (≈ 2.77 µg/mL)
Survival (Bacillus subtilis [3]): 0%
MIC (Staphylococcus aureus [5]): 2 µM (≈ 2.77 µg/mL)
MIC (Acinetobacter baumannii): 9 µM (≈ 12.4 µg/mL)
MIC (Pseudomonas aeruginosa): 70 µM (≈ 96.8 µg/mL)
MIC (Escherichia coli): 17 µM (≈ 23.5 µg/mL)
MIC (Bacillus subtilis [9]): 4 µM (≈ 5.53 µg/mL)
hemolysis at 250 ug/ml [10]: > 50%

CCCCCC(=O)NCCCC[C@H](N)C(=O)N[C@@H](CCCNC(=N)N)C(=O)N[C@@H](Cc1c[nH]c2ccccc12)C(=O)N[C@@H](CCCNC(=N)N)C(=O)N[C@@H](Cc1c[nH]c2ccccc12)C(=O)N[C@@H](CCCNC(=N)N)C(=O)N[C@@H](Cc1c[nH]c2ccccc12)C(N)=O (H-K(Hexanoyl)RWRWRW-NH2)
MIC (Staphylococcus aureus [2]): 5 µM (≈ 6.35 µg/mL)
Survival (Bacillus subtilis [3]): 0.211%
MIC (Staphylococcus aureus [5]): 5 µM (≈ 6.35 µg/mL)
MIC (Acinetobacter baumannii): 9 µM (≈ 11.4 µg/mL)
MIC (Pseudomonas aeruginosa): 37 µM (≈ 47 µg/mL)
MIC (Escherichia coli): 9 µM (≈ 11.4 µg/mL)
MIC (Bacillus subtilis [9]): 0.6 µM (≈ 0.762 µg/mL)
hemolysis at 250 ug/ml [10]: < 10%

CCCCCCCCCCCCCC(=O)NCCCC[C@H](N)C(=O)N[C@@H](CCCNC(=N)N)C(=O)N[C@@H](Cc1c[nH]c2ccccc12)C(=O)N[C@@H](CCCNC(=N)N)C(=O)N[C@@H](Cc1c[nH]c2ccccc12)C(=O)N[C@@H](CCCNC(=N)N)C(=O)N[C@@H](Cc1c[nH]c2ccccc12)C(N)=O (H-K(Myristoyl)RWRWRW-NH2)
MIC (Staphylococcus aureus [2]): 9 µM (≈ 12.4 µg/mL)
Survival (Bacillus subtilis [3]): 0.033%
MIC (Staphylococcus aureus [5]): 17 µM (≈ 23.5 µg/mL)
MIC (Acinetobacter baumannii): 35 µM (≈ 48.4 µg/mL)
MIC (Pseudomonas aeruginosa): > 100 µM
MIC (Escherichia coli): 35 µM (≈ 48.4 µg/mL)
MIC (Bacillus subtilis [9]): 9 µM (≈ 12.4 µg/mL)
hemolysis at 250 ug/ml [10]: > 50%

CCCCCCCCCC(=O)NCCCC[C@H](NC(=O)[C@H](Cc1c[nH]c2ccccc12)NC(=O)[C@H](CCCNC(=N)N)NC(=O)[C@H](Cc1c[nH]c2ccccc12)NC(=O)[C@H](CCCNC(=N)N)NC(=O)[C@H](Cc1c[nH]c2ccccc12)NC(=O)[C@@H](N)CCCNC(=N)N)C(N)=O (H-RWRWRWK(Decanoyl)-NH2)
MIC (Staphylococcus aureus [2]): 1 µM (≈ 1.33 µg/mL)
Survival (Bacillus subtilis [3]): 0.053%
MIC (Staphylococcus aureus [5]): 1 µM (≈ 1.33 µg/mL)
MIC (Acinetobacter baumannii): 5 µM (≈ 6.63 µg/mL)
MIC (Pseudomonas aeruginosa): 9 µM (≈ 11.9 µg/mL)
MIC (Escherichia coli): 2 µM (≈ 2.65 µg/mL)
MIC (Bacillus subtilis [9]): 0.6 µM (≈ 0.796 µg/mL)
hemolysis at 250 ug/ml [10]: 50%
